In patent US20060287319A1, “Anti-viral compositions comprising heterocyclic substituted phenyl furans and related compounds” (priority 2005, published 2006):
Read-outs that look alike come from different tables or passages of the source.

Assays:
HIV-1IIIB in MT-2 cells = experiment: Time-of-addition assay (p24 production); format: cell-based; conditions: 0.1 μM
Procedure: FIG. 1 NB-206 and its analogs inhibited HIV-1 entry. Inhibition of HIV-1 entry was determined by a time-of-addition assay. NB-206 (2.5 μM) and its analog NB-231 (2.5 μM) were added to MT-2 cells at different intervals post-infection by HIV-1IIIB. AZT (0.1 μM), a reverse transcriptase inhibitor, was included as a control. Each sample was tested in triplicate.
Assessment of anti-HIV-1 infectivity. […] Reactions were terminated by addition of 1N H2SO4.
A time-of-addition assay was carried out to determine whether NB-206 and its analogs are HIV-1 entry inhibitors. MT-2 cells were incubated with HIV-1IIIB at 37° C. for 0, 1, 2, 3, 4, 6, and 8 hrs, respectively, before addition of NB-206 and NB-231 at 2.5 μM. AZT (0.1 μM) was used as a control. After culture for another 2 hrs, the cells were washed to remove the free-virus and compounds. The supernatants were collected on day 4 post-infection for measurement of p24 production.

HIV-1 = conditions: previously reported; cited from earlier work
[1] = test system: HIV-1IIIB infected H9 cells (H9/HIV-1IIIB) and MT-2 cells; experiment: HIV-1 mediated cell-cell fusion (dye transfer assay); format: cell-based; conditions: H9/HIV-1IIIB with MT-2 cells; read-out: EC50 (μM) (M ± SD) for inhibition of Cell fusion
Procedure: Inhibition of cell-cell fusion. A dye transfer assay was used for detection of HIV-1 mediated cell fusion as previously described (11,25,26). H9/HIV-1IIIB cells were labeled with a fluorescent reagent, Calcein-AM (Molecular Probes, Inc., Eugene, Oreg.) and then incubated with MT-2 cells (ratio=1:5) in 96-well plates at 37° C. for 2 hrs in the presence or absence of compounds tested. The fused and unfused Cacein-labeled HIV-1-infected cells were counted under an inverted fluorescence microscope (Zeiss, Germany) with an eyepiece micrometer disc. The percentage of inhibition of cell fusion and the IC50 values were calculated as previously described (11).

HIV-1 IIIB [2] = conditions: for EC50: read-out: EC50 (μM) (M ± SD) for inhibition of p24, HIV-1 IIIB, MT-2 cells; for SI (CC50/EC50): selectivity index
Procedure: Assessment of anti-HIV-1 infectivity. The inhibitory activity of compounds on infection by laboratory-adapted HIV-1 strains was determined as previously described (34). […] For the time-of-addition assay, compounds were added at various time post-infection. Then the culture supernatants were removed and fresh media were added. On the fourth day post-infection, 100 μl of culture supernatants were collected from each well, mixed with equal volumes of 5% Triton X-100 and assayed for p24 antigen, which was quantitated by ELISA (23). Briefly, the wells of polystyrene plates (Immulon 1B, Dynex Technology, Chantilly, Va.) were coated with HIV immunoglobulin (HIVIG), which was prepared from plasma of HIV-seropositive donors with high neutralizing titers against HIV-1IIIB as previously described (36) in 0.085 M carbonate-bicarbonate buffer (pH 9.6) at 4° C. overnight, followed by washes with PBS-T buffer (0.01M PBS containing 0.05% Tween-20) and blocking with PBS containing 1% dry fat-free milk (Bio-Rad Inc., Hercules, Calif.). Virus lysates were added to the wells and incubated at 37° C. for 1 h. […] Reactions were terminated by addition of 1N H2SO4. […] Recombinant protein p24 (US Biological, Swampscott, Mass.) was included for establishing standard dose response curve.

HIV-1 IIIB [3] = experiment: HIV-1-mediated cytopathic effect (CPE); format: cell-based; conditions: read-out: EC50 (μM) (M ± SD) for inhibition of CPE
From the text: We thus purchased these compounds and tested their inhibitory activity on: 1) HIV-1 replication (p24 production); 2) HIV-1-mediated cytopathic effect (CPE); and 3) HIV-1 Env-induced cell-cell fusion; and their cytotoxicity to MT-2 cells.

MT-2 cells = test system: MT-2 cells
Procedure: Detection of in vitro cytotoxicity. The in vitro cytotoxicity of compounds for MT-2 cells was measured by a colorimetric method using XTT tetrazolium dye as previously described (21). Briefly, 100 μl of a compound at a graded concentration was added to equal volume of cells (5×10^5/ml) in a well of 96-well plates. After incubation at 37° C. for 4 days, XTT (1 mg/ml; […]; PolySciences, Inc., Warrington, Pa.) was added. Four hours later, the soluble intracellular formazan was quantitated colorimetrically at 450 nm with a reference at 570 nm.

[4] = target: gp41 six-helix bundle formation between N36 and C34 (Human immunodeficiency virus type 1 group M subtype B, UniProt P04578)
Procedure: ELISA for screening for compounds that inhibit the gp41 six-helix bundle formation. A sandwich ELISA as previously described (27) was used to screen for compounds that inhibit the gp41 six-helix bundle formation. Briefly, peptide N36 (2 μM) was pre-incubated with a test compound at the indicated concentrations at 37° C. for 30 min, followed by addition of C34 (2 μM). In the control experiments, N36 was pre-incubated with C34 at 37° C. for 30 min, followed by addition of the test compound. After incubation at 37° C. for 30 min, the mixture was added to wells of a 96-well polystyrene plate (Costar, Corning Inc., Corning, N.Y.) which were precoated with IgG (2 μg/ml) purified from rabbit antisera directed against the N36/C34 mixture. […] Absorbance at 450 nm was measured using an ELISA reader (Ultra 384, Tecan, Research Triangle Park, N.C.). […] Chou (Sloan-Kettering Cancer Center, New York, N.Y.).
A model system of the gp41 six-helix bundle was established by mixing the N— and C-peptides at equal molar concentrations (16).

[5] = test system: HIV-1IIIB-infected H9 cells (H9/HIV-1IIIB) cocultured with MT-2 cells; conditions: single dose 25 μg/ml, HTS
Procedure: Syncytium-formation assay for screening HIV-1 fusion inhibitors. HIV-1IIIB-infected H9 cells (H9/HIV-1IIIB) at 2×10^5/ml were cocultured with MT-2 cells (2×10^6/ml) in the presence of compounds to be screened (final concentration of compound: 25 μg/ml) in a 96-well plate at 37° C. for 2 days. HIV-1 induced syncytium formation was observed under an inverted microscope and scored as “−” (no syncytium was observed), “±” (about 50% syncytia were inhibited), and “+” (no syncytium formation was inhibited). The compounds scored with “−” and “±” were selected for further screening by ELISA for inhibitors against the gp41 six-helix bundle formation.

[6] = read-out: Cytotoxicity CC50 (μM) (M ± SD), MT-2 cells

Sequence of gp41 six-helix bundle formation between N36 and C34 (P04578 546-581): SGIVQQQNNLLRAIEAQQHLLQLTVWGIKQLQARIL

EC50 [1] [µM] | EC50 (HIV-1 IIIB [2]) [µM] | EC50 (HIV-1 IIIB [3]) [µM] | Structure (SMILES) | inhibition of HIV-1 replication, added 8 hrs post-infection (HIV-1IIIB in MT-2 cells) | anti-HIV-1 activities (HIV-1) | CC50 (MT-2 cells) [µM] | SI (CC50/EC50) (HIV-1 IIIB [2]) | CC50 (MT-2 cells; [6]) [µM] | IC50 ([4]; read-out: IC50 for inhibition of six-helix bundle formation between N36 and C34, sandwich ELISA, FIG. 3) [µM] | inhibition of six-helix bundle formation between N36 and C34 ([4]; single dose 25 μg/ml, HTS) | inhibition of HIV-1 mediated syncytium formation [5]
 |  |  | Cc1cn([C@H]2C[C@H](N=[N+]=[N-])[C@@H](CO)O2)c(=O)[nH]c1=O [AZT] | still effective |  |  |  |  |  |  | 
 |  |  | COc1ccc(S(=O)(=O)[O-])cc1N=Nc1c(S(=O)(=O)[O-])cc2cc(Nc3nc(Nc4ccccc4)nc(Nc4cc(C)c(N=Nc5cc(S(=O)(=O)[O-])cc6cc(S(=O)(=O)[O-])cc(O)c56)cc4OC)n3)ccc2c1O.[Na+].[Na+].[Na+].[Na+] [ADS-J1] |  | micromolar levels |  |  |  |  |  | 
> 100 | > 100 | > 100 | Cc1cccc(NC(=O)CN2C(=O)S/C(=C\c3ccc(-c4cc(C(=O)O)ccc4Cl)o3)C2=O)c1 [NB198] |  |  | > 322 |  |  |  |  | 
> 100 | 2.12 ± 0.38 | 3.46 ± 0.2 | COC(=O)c1ccccc1N1C(=O)/C(=C/c2ccc(-c3ccc(Cl)c(C(=O)O)c3)o2)SC1=S [NB226] |  |  | > 320 |  |  |  |  | 
 |  |  | O=C(O)c1cccc(-c2ccc(/C=C3\SC(=S)N(c4cccc(C(F)(F)F)c4)C3=O)o2)c1 [NB154] |  |  |  |  |  | 1.56 ± 0.12 |  | 
> 100 | > 100 | > 100 | C#CCN1C(=O)S/C(=C\c2ccc(-c3ccc(Cl)c(C(=O)O)c3)o2)C1=O [NB200] |  |  | > 413 |  |  |  |  | 
> 100 | > 100 | > 100 | Cc1ccc(NC(=O)CN2C(=O)S/C(=C\c3ccc(-c4cccc(C(=O)O)c4)o3)C2=O)cc1 [NB194] |  |  | 207 ± 4.4 |  |  |  |  | 
> 100 | > 100 | > 100 | CC(C)CN1C(=O)S/C(=C\c2ccc(-c3ccc(Cl)c(C(=O)O)c3)o2)C1=O [NB193] |  |  | > 394 |  |  |  |  | 
> 100 | > 100 | > 100 | CCOC(=O)CN1C(=O)S/C(=C\c2ccc(-c3ccc(Cl)c(C(=O)O)c3)o2)C1=O [NB204] |  |  | > 366 |  |  |  |  | 
> 100 | > 100 | > 100 | C#CCN1C(=O)S/C(=C\c2ccc(-c3cc(C(=O)O)ccc3Cl)o2)C1=O [NB203] |  |  | > 413 |  |  |  |  | 
> 100 | > 100 | > 100 | Cc1cccc(NC(=O)CN2C(=O)S/C(=C\c3ccc(-c4ccc(Cl)c(C(=O)O)c4)o3)C2=O)c1 [NB207] |  |  | > 464 |  |  |  |  | 
> 100 | > 100 | > 100 | Cc1cccc(NC(=O)CN2C(=O)S/C(=C\c3ccc(-c4cccc(C(=O)O)c4C)o3)C2=O)c1 [NB209] |  |  | 113 ± 14.8 |  |  |  |  | 
> 100 | > 100 | > 100 | O=C(O)c1cccc(-c2ccc(/C=C3\SC(=S)N(c4ccc(F)cc4)C3=O)o2)c1 [NB229] |  |  | > 376 |  |  |  |  | 
> 100 | > 100 | > 100 | CCN1C(=O)S/C(=C\c2ccc(-c3cc(C(=O)O)ccc3Cl)o2)C1=O [NB236] |  |  | 113 ± 8.64 |  |  |  |  | 

Structure (SMILES) | EC50 [1] [µM] | EC50 (HIV-1 IIIB [2]) [µM] | EC50 (HIV-1 IIIB [3]) [µM] | inhibition of HIV-1 replication, added 8 hrs post-infection (HIV-1IIIB in MT-2 cells) | anti-HIV-1 activities (HIV-1) | CC50 (MT-2 cells) [µM] | SI (CC50/EC50) (HIV-1 IIIB [2]) | CC50 (MT-2 cells; [6]) [µM] | IC50 ([4]; read-out: IC50 for inhibition of six-helix bundle formation between N36 and C34, sandwich ELISA, FIG. 3) [µM] | inhibition of six-helix bundle formation between N36 and C34 ([4]; single dose 25 μg/ml, HTS) | inhibition of HIV-1 mediated syncytium formation [5]
O=C(O)c1cc(-c2ccc(/C=C3\SC(=O)N(c4ccc(Cl)cc4)C3=O)o2)ccc1Cl [NB140] | > 100 | 12.1 ± 2.73 | 63.4 ± 1.28 |  |  |  | 10.41 | 126 ± 19.2 |  |  | 
O=C(O)c1cc(-c2ccc(/C=C3\SC(=O)N(c4cccc(Cl)c4)C3=O)o2)ccc1Cl [NB139] | > 100 | > 100 | > 100 |  |  |  |  | 239 ± 14.7 |  |  | 
O=C(O)c1cccc(-c2ccc(/C=C3\SC(=S)N(C4CCCCC4)C3=O)o2)c1 [NB181] | > 100 | 0.218 ± 0.024 | 0.605 ± 0.194 |  |  |  | >1777.78 | > 387 |  |  | 
Cc1c(C(=O)O)cccc1-c1ccc(/C=C2\SC(=O)N(CC(=O)Nc3ccccc3F)C2=O)o1 [NB195] | > 100 | > 100 | > 100 |  |  |  |  | 154 ± 6.93 |  |  | 
COc1ccc(N2C(=O)/C(=C/c3ccc(-c4cccc(C(=O)O)c4)o3)SC2=S)cc1 [NB156] | 2.66 | 0.779 ± 0.092 | 3.16 ± 1.35 |  |  |  | >470.59 | > 399 |  |  | 
O=C(O)c1cccc(-c2ccc(/C=C3\SC(=S)N(c4cccc5ccccc45)C3=O)o2)c1 [NB221] | 7.11 ± 0.24 | 0.46 ± 0.009 | 1.58 ± 0.241 |  |  |  | 75.04 | 34.5 ± 0.46 |  |  | 
O=C(O)c1cccc(-c2ccc(/C=C3\SC(=S)N(c4cccc(Cl)c4)C3=O)o2)c1 [NB145] | 1.77 ± 0.09 | 0.18 ± 0.02 | 0.18 ± 0.006 |  |  |  | 261.5 | 47.5 ± 6.37 |  | completely inhibited | completely inhibited
O=C(O)c1cccc(-c2ccc(/C=C3\SC(=O)N(c4ccc(Cl)cc4)C3=O)o2)c1 [NB160] | > 100 | > 100 | > 100 |  |  |  |  | > 376 |  |  | 
Cc1ccc(N2C(=O)/C(=C/c3ccc(-c4cccc(C(=O)O)c4)o3)SC2=S)c(C)c1 [NB146] | 1.08 | 0.299 ± 0.046 | 1.77 ± 0.368 |  |  |  | 103.15 | 33.8 ± 4.44 |  |  | 
COC(=O)CN1C(=O)S/C(=C\c2ccc(-c3cc(C(=O)O)ccc3Cl)o2)C1=O [NB234] | > 100 | > 100 | > 100 |  |  |  |  | > 379 |  |  | 
